23 compounds from ChEMBL document CHEMBL3864157, “The synthesis and antistaphylococcal activity of dehydroabietic acid derivatives: Modifications at C-12” (2016) can be followed below.

What all share (assay type): functional
Test [1] relates to Staphylococcus aureus. Put plainly: Antibacterial activity against Staphylococcus aureus Newman.
The subject of test [2] is Staphylococcus aureus. Put plainly: Antibacterial activity against aminoglycosides/tetracycline-resistant Staphylococcus aureus NRS-1.
The subject of test [3] is Staphylococcus aureus. Put plainly: Antibacterial activity against erythromycin-resistant Staphylococcus aureus NRS-70.
Test [4] relates to Staphylococcus aureus. Put plainly: Antibacterial activity against oxacillin/tetracycline-resistant Staphylococcus aureus NRS-100.
Test [5] relates to Staphylococcus aureus. Put plainly: Antibacterial activity against gentamicin-resistant Staphylococcus aureus NRS-108.
Test [6] deals with Staphylococcus aureus. Put plainly: Antibacterial activity against linezolid-resistant Staphylococcus aureus NRS-271.

Structures are written as SMILES. Values after ≈ are worked out from the molar mass of the structure shown.

For `CC(C)c1cc2c(cc1C(=NO)c1ccc(Cl)cc1Cl)[C@@]1(C)CCC[C@@](C)(C(=O)O)[C@@H]1CC2`, the MIC is 1.56 to 3.13 µg/mL (≈ 3.19 to 6.41 µM) in the test with Staphylococcus aureus [1]; 3.13 µg/mL (≈ 6.41 µM) against Staphylococcus aureus [2]; 1.56 to 3.13 µg/mL (≈ 3.19 to 6.41 µM) against Staphylococcus aureus [3]; 3.13 µg/mL (≈ 6.41 µM) with Staphylococcus aureus [4]; 1.56 to 3.13 µg/mL (≈ 3.19 to 6.41 µM) in the test on Staphylococcus aureus [5]; 1.56 to 3.13 µg/mL (≈ 3.19 to 6.41 µM) with Staphylococcus aureus [6].

`C=CCON=C(c1ccccc1)c1cc2c(cc1C(C)C)CC[C@H]1[C@](C)(C(=O)O)CCC[C@]21C`: the MIC with Staphylococcus aureus [1] was 1.25 to 2.5 µg/mL (≈ 2.72 to 5.44 µM); in the test on Staphylococcus aureus [2], 2.5 to 3.13 µg/mL (≈ 5.44 to 6.81 µM); against Staphylococcus aureus [3], 1.25 to 1.56 µg/mL (≈ 2.72 to 3.39 µM); with Staphylococcus aureus [4], 1.56 to 2.5 µg/mL (≈ 3.39 to 5.44 µM); with Staphylococcus aureus [5] it was 1.56 to 2.5 µg/mL (≈ 3.39 to 5.44 µM); in the test on Staphylococcus aureus [6] it was 1.56 to 2.5 µg/mL (≈ 3.39 to 5.44 µM).

Take `C#CCON=C(c1ccc(Cl)cc1Cl)c1cc2c(cc1C(C)C)CC[C@H]1[C@](C)(C(=O)O)CCC[C@]21C`: the MIC was 1.56 to 3.13 µg/mL (≈ 2.96 to 5.94 µM) with Staphylococcus aureus [1]; over 25 µg/mL with Staphylococcus aureus [2]; 1.56 to 3.13 µg/mL (≈ 2.96 to 5.94 µM) against Staphylococcus aureus [3]; 12.5 to 25 µg/mL (≈ 23.7 to 47.5 µM) in the test with Staphylococcus aureus [4]; 12.5 µg/mL (≈ 23.7 µM) with Staphylococcus aureus [5]; 12.5 to 25 µg/mL (≈ 23.7 to 47.5 µM) in the test with Staphylococcus aureus [6].

Consider `C#CCON=C(c1ccccc1)c1cc2c(cc1C(C)C)CC[C@H]1[C@](C)(C(=O)O)CCC[C@]21C`, for which the MIC is 2.5 µg/mL (≈ 5.46 µM) against Staphylococcus aureus [1]; 6.25 to 12.5 µg/mL (≈ 13.7 to 27.3 µM) against Staphylococcus aureus [2]; 1.56 to 2.5 µg/mL (≈ 3.41 to 5.46 µM) in the test with Staphylococcus aureus [3]; 3.13 µg/mL (≈ 6.84 µM) with Staphylococcus aureus [4]; 3.13 to 6.25 µg/mL (≈ 6.84 to 13.7 µM) against Staphylococcus aureus [5]; 3.13 to 6.25 µg/mL (≈ 6.84 to 13.7 µM) with Staphylococcus aureus [6].

Regarding `CON=C(c1cc2c(cc1C(C)C)CC[C@H]1[C@](C)(C(=O)O)CCC[C@]21C)c1ccccc1C(F)(F)F`, the MIC in the test with Staphylococcus aureus [1] lay within 0.39 to 0.78 µg/mL (≈ 0.778 to 1.56 µM); in the test on Staphylococcus aureus [2], 3.13 to 6.25 µg/mL (≈ 6.24 to 12.5 µM); in the test on Staphylococcus aureus [3], 1.56 to 3.13 µg/mL (≈ 3.11 to 6.24 µM); with Staphylococcus aureus [4], 3.13 to 6.25 µg/mL (≈ 6.24 to 12.5 µM); with Staphylococcus aureus [5], 6.25 to 12.5 µg/mL (≈ 12.5 to 24.9 µM); against Staphylococcus aureus [6], 1.56 to 3.13 µg/mL (≈ 3.11 to 6.24 µM).

Consider `CON=C(c1cccc(C(F)(F)F)c1)c1cc2c(cc1C(C)C)CC[C@H]1[C@](C)(C(=O)O)CCC[C@]21C`, for which the MIC against Staphylococcus aureus [1] is 1.56 to 3.13 µg/mL (≈ 3.11 to 6.24 µM); in the test on Staphylococcus aureus [2], over 25 µg/mL; against Staphylococcus aureus [3], over 25 µg/mL; against Staphylococcus aureus [4], over 25 µg/mL; with Staphylococcus aureus [5] it was over 25 µg/mL; against Staphylococcus aureus [6] it was over 25 µg/mL.

On to `CON=C(c1ccc(Cl)cc1Cl)c1cc2c(cc1C(C)C)CC[C@H]1[C@](C)(C(=O)O)CCC[C@]21C`, for which the MIC was 1.56 to 3.13 µg/mL (≈ 3.1 to 6.23 µM) in the test with Staphylococcus aureus [1]; over 25 µg/mL in the test on Staphylococcus aureus [2]; 1.56 to 3.13 µg/mL (≈ 3.1 to 6.23 µM) with Staphylococcus aureus [3]; over 25 µg/mL in the test on Staphylococcus aureus [4]; over 25 µg/mL in the test on Staphylococcus aureus [5]; over 25 µg/mL in the test with Staphylococcus aureus [6].

Regarding `CC(C)c1ccc2c(c1)CC[C@H]1[C@](C)(C(=O)O)CCC[C@]21C` [DEHYDROABIETIC ACID], the MIC fell in the range of 12.5 to 20 µg/mL (≈ 41.6 to 66.6 µM) in the test with Staphylococcus aureus [1]; 12.5 to 25 µg/mL (≈ 41.6 to 83.2 µM) against Staphylococcus aureus [2]; 12.5 to 25 µg/mL (≈ 41.6 to 83.2 µM) against Staphylococcus aureus [3]; 12.5 to 25 µg/mL (≈ 41.6 to 83.2 µM) against Staphylococcus aureus [4]; 12.5 to 25 µg/mL (≈ 41.6 to 83.2 µM) in the test on Staphylococcus aureus [5]; 12.5 to 25 µg/mL (≈ 41.6 to 83.2 µM) with Staphylococcus aureus [6].

Turning to `C#CCON=C(c1cccc(C(F)(F)F)c1)c1cc2c(cc1C(C)C)CC[C@H]1[C@](C)(C(=O)O)CCC[C@]21C`, the MIC is 1.56 to 3.13 µg/mL (≈ 2.97 to 5.95 µM) in the test with Staphylococcus aureus [1]; over 25 µg/mL against Staphylococcus aureus [2]; over 25 µg/mL in the test on Staphylococcus aureus [3]; over 25 µg/mL in the test with Staphylococcus aureus [4]; over 25 µg/mL against Staphylococcus aureus [5]; over 25 µg/mL with Staphylococcus aureus [6].

As for `CN[C@H](CC(C)C)C(=O)N[C@H]1C(=O)N[C@@H](CC(N)=O)C(=O)N[C@H]2C(=O)N[C@H]3C(=O)N[C@H](C(=O)N[C@H](C(=O)O)c4cc(O)cc(O)c4-c4cc3ccc4O)[C@H](O)c3ccc(c(Cl)c3)Oc3cc2cc(c3O[C@@H]2O[C@H](CO)[C@@H](O)[C@H](O)[C@H]2O[C@H]2C[C@](C)(N)[C@H](O)[C@H](C)O2)Oc2ccc(cc2Cl)[C@H]1O` [VANCOMYCIN], the MIC with Staphylococcus aureus [1] lay within 0.78 to 1.56 µg/mL (≈ 0.538 to 1.08 µM); against Staphylococcus aureus [2] it was 1.56 to 3.13 µg/mL (≈ 1.08 to 2.16 µM); against Staphylococcus aureus [3], 0.2 to 0.39 µg/mL (≈ 0.138 to 0.269 µM); with Staphylococcus aureus [4] it was 0.39 to 0.78 µg/mL (≈ 0.269 to 0.538 µM); with Staphylococcus aureus [5], 0.39 to 0.78 µg/mL (≈ 0.269 to 0.538 µM); in the test on Staphylococcus aureus [6], 0.39 to 0.78 µg/mL (≈ 0.269 to 0.538 µM).

As to `CC(C)c1cc2c(cc1C(=NO)c1ccccc1C(F)(F)F)[C@@]1(C)CCC[C@@](C)(C(=O)O)[C@@H]1CC2`, the MIC against Staphylococcus aureus [1], against Staphylococcus aureus [2], in the test with Staphylococcus aureus [3], in the test with Staphylococcus aureus [4], against Staphylococcus aureus [5] and against Staphylococcus aureus [6] was 1.56 to 3.13 µg/mL (≈ 3.2 to 6.42 µM) in each case.

With `C=CCON=C(c1ccc(Cl)cc1Cl)c1cc2c(cc1C(C)C)CC[C@H]1[C@](C)(C(=O)O)CCC[C@]21C`, the MIC with Staphylococcus aureus [1] is 1.56 to 3.13 µg/mL (≈ 2.95 to 5.92 µM); against Staphylococcus aureus [2], over 25 µg/mL; against Staphylococcus aureus [3], 1.56 to 3.13 µg/mL (≈ 2.95 to 5.92 µM); with Staphylococcus aureus [4] it was 12.5 to 25 µg/mL (≈ 23.7 to 47.3 µM); in the test with Staphylococcus aureus [5], 12.5 µg/mL (≈ 23.7 µM); in the test with Staphylococcus aureus [6], over 25 µg/mL.

As to `CC(C)c1cc2c(cc1C(=NO)c1cccc(C(F)(F)F)c1)[C@@]1(C)CCC[C@@](C)(C(=O)O)[C@@H]1CC2`, the MIC against Staphylococcus aureus [1] lay in the range of 1.56 to 3.13 µg/mL (≈ 3.2 to 6.42 µM); with Staphylococcus aureus [2], 3.13 to 6.25 µg/mL (≈ 6.42 to 12.8 µM); with Staphylococcus aureus [3], 1.56 to 3.13 µg/mL (≈ 3.2 to 6.42 µM); against Staphylococcus aureus [4], 3.13 to 6.25 µg/mL (≈ 6.42 to 12.8 µM); against Staphylococcus aureus [5], 3.13 to 6.25 µg/mL (≈ 6.42 to 12.8 µM); against Staphylococcus aureus [6], 3.13 to 6.25 µg/mL (≈ 6.42 to 12.8 µM).

`CCCC(=NO)c1cc2c(cc1C(C)C)CC[C@H]1[C@](C)(C(=O)O)CCC[C@]21C` gave an MIC in the test on Staphylococcus aureus [1] of 40 to 50 µg/mL (≈ 104 to 130 µM).

Take `C#CCON=C(c1cc2c(cc1C(C)C)CC[C@H]1[C@](C)(C(=O)O)CCC[C@]21C)c1ccccc1C(F)(F)F`: the MIC against Staphylococcus aureus [1] is 1.56 to 3.13 µg/mL (≈ 2.97 to 5.95 µM); in the test on Staphylococcus aureus [2], over 25 µg/mL; in the test with Staphylococcus aureus [3], over 25 µg/mL; in the test on Staphylococcus aureus [4] it was over 25 µg/mL; against Staphylococcus aureus [5], over 25 µg/mL; in the test with Staphylococcus aureus [6], over 25 µg/mL.

As for `C#CCON=C(c1cc2c(cc1C(C)C)CC[C@H]1[C@](C)(C(=O)O)CCC[C@]21C)C1CCCCC1`, in the test on Staphylococcus aureus [1], the MIC was over 50 µg/mL.

Turning to `C=CCON=C(c1cccc(C(F)(F)F)c1)c1cc2c(cc1C(C)C)CC[C@H]1[C@](C)(C(=O)O)CCC[C@]21C`, the minimal inhibitory concentration (MIC) against Staphylococcus aureus [1] was over 50 µg/mL.

Compound `C#CCON=C(CC)c1cc2c(cc1C(C)C)CC[C@H]1[C@](C)(C(=O)O)CCC[C@]21C` yielded an MIC in the test with Staphylococcus aureus [1] of 20 to 25 µg/mL (≈ 48.8 to 61 µM).

As for `CC(C)C(=NOCc1ccccc1)c1cc2c(cc1C(C)C)CC[C@H]1[C@](C)(C(=O)O)CCC[C@]21C`, the MIC in the test with Staphylococcus aureus [1] was over 50 µg/mL.

Turning to `C=CCON=C(c1cc2c(cc1C(C)C)CC[C@H]1[C@](C)(C(=O)O)CCC[C@]21C)c1ccccc1C(F)(F)F`, the MIC in the test with Staphylococcus aureus [1] is 0.78 to 1.56 µg/mL (≈ 1.48 to 2.96 µM); with Staphylococcus aureus [2], 12.5 to 25 µg/mL (≈ 23.7 to 47.4 µM); against Staphylococcus aureus [3], 1.56 to 3.13 µg/mL (≈ 2.96 to 5.93 µM); against Staphylococcus aureus [4] it was 6.25 to 12.5 µg/mL (≈ 11.8 to 23.7 µM); against Staphylococcus aureus [5] it was 6.25 to 12.5 µg/mL (≈ 11.8 to 23.7 µM); in the test on Staphylococcus aureus [6] it was over 50 µg/mL.

`CON=C(c1ccc(C(F)(F)F)cc1)c1cc2c(cc1C(C)C)CC[C@H]1[C@](C)(C(=O)O)CCC[C@]21C` registered an MIC with Staphylococcus aureus [1] of over 50 µg/mL.

`CC(C)c1cc2c(cc1C(=NO)c1ccc(C(F)(F)F)cc1)[C@@]1(C)CCC[C@@](C)(C(=O)O)[C@@H]1CC2` displayed an MIC against Staphylococcus aureus [1] of over 50 µg/mL.

As for `CN(C)[C@@H]1C(O)=C(C(N)=O)C(=O)[C@@]2(O)C(O)=C3C(=O)c4c(O)cccc4[C@@](C)(O)[C@H]3C[C@@H]12` [TETRACYCLINE], the MIC against Staphylococcus aureus [1] is under 0.2 µg/mL; with Staphylococcus aureus [2], over 25 µg/mL; in the test on Staphylococcus aureus [3] it was under 0.2 µg/mL; with Staphylococcus aureus [4], under 0.2 µg/mL; against Staphylococcus aureus [5] it was under 0.2 µg/mL; in the test on Staphylococcus aureus [6], under 0.2 µg/mL.

For orientation: MIC means the lowest concentration that inhibits growth of the organism. Lower therefore signals a more susceptible organism.
